Measurements as given in ChEMBL document CHEMBL2434912, “Microwave accelerated synthesis of isoxazole hydrazide inhibitors of the system xc- transporter: Initial homology model” (Bioorg Med Chem Lett, 2013).

Molecular target: T1, Cystine/glutamate transporter (Homo sapiens) (UniProt Q9UPY5)
T1 sequence (whole entry): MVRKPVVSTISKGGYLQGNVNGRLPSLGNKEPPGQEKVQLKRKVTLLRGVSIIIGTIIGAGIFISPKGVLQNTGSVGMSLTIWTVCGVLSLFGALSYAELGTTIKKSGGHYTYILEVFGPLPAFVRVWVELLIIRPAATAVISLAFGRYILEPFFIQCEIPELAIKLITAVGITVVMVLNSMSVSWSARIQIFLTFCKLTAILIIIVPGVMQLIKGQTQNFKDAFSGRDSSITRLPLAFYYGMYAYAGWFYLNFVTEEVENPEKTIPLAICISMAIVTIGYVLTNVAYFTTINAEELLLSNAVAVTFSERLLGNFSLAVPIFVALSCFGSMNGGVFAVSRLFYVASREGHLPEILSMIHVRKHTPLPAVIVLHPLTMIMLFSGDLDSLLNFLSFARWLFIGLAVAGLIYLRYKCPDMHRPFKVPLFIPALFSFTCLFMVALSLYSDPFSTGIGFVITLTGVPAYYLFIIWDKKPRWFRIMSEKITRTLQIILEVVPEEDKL
Experiment: Inhibition of system xc-transporter-mediated [3H]-L-glutamate uptake in human SNB19 cells at 500 uM after 5 mins by liquid scintillation counting analysis relative to control
Format: cell-based
Details: SNB-19

| inhibition [%] | SMILES |
| --- | --- |
| 68 | C/C(=N\NC(=O)c1cccc2ccccc12)c1c(C(=O)O)noc1C |
| 83 | C/C(=N\NC(=O)c1ccccc1)c1c(C(=O)O)noc1C |
| 52 | C/C(=N\NC(=O)c1ccccc1O)c1c(C(=O)O)noc1C |
| 68 | COc1ccc(C(=O)N/N=C(\C)c2c(C(=O)O)noc2C)cc1 |
| 58 | C/C(=N\NC(=O)c1ccc(F)cc1F)c1c(C(=O)O)noc1C |
| 90 | C/C(=N\NC(=O)c1cc(C(F)(F)F)cc(C(F)(F)F)c1)c1c(C(=O)O)noc1C |
